5 molecules from patent US12129244B2, “Modulators of Mas-related G-protein receptor X2 and related products and methods” (Escient Pharmaceuticals, Inc., priority 2022, dated 2024) can be followed below.

Data set [1] concerns Human LAD2 cells. The data set is described as follows: Mast Cell Beta-Hexosaminidase Release Assay. Type of data set: cell-based. To be noted: 500 nM Cortistatin-14, read-out: MRGPRX2 Antagonist Activity. On the procedure: Human LAD2 cells (NIH) were maintained in an incubator at 37° C. with 5% CO2 and cultured in StemPro-34 serum-free media (Gibco 10639011) supplemented with 2 mM L-glutamine, 100 U/ml penicillin, […] streptomycin and 100 ng/ml SCF (Invitrogen PEP0860), at a concentration of 2-5×10^5 cells/mL, with hemidepletion every 1-2 weeks.
Cells were transferred to SCF-Free medium at 2.5×10^5 cells/mL and kept in an incubator overnight. On the day of the assay, cells were washed twice in Assay Buffer (final concentrations 10 mM HEPES, 137 mM NaCl, 5.6 mM D-glucose, 2.7 mM KCl, 1 mM MgCl, 1.8 mM CalCl2, 0.4 mM Na2HPO4·7H2O, 0.04% BSA, pH=7.4) and plated in a 96-well v-bottom plate at 20,000 cells per well in 80 μL Assay Buffer. Antagonist compounds solubilized at 10 mM in DMSO were diluted in Assay Buffer to 10× final desired concentrations as a 10-point curve (10 μM final top concentration with 1:3 serial dilutions) and 10 μL added per well. Plates were then incubated for 1 hour at 37° C. Agonists were diluted in Assay Buffer to 10× desired concentrations and 10 μL of the appropriate agonist added to each well. The final concentration of Cortistatin-14 (Tocris 3374) used in antagonist assays was 500 nM. Final concentrations of DMSO were kept consistent across the plate. Plates were then incubated in a warm air oven for 30 minutes at 37° C., followed by centrifugation at 4° C. for 5 minutes at 450×g. 50 μL supernatant from each well was then transferred to a 96-well flat bottom plate containing 100 μL substrate solution per well (3.5 mg/mL p-Nitrophenyl-N-acetyl-β-D-glucosaminide (Sigma 487052) in Citrate Buffer containing a final concentration of 40 mM Citric Acid, 20 mM Na2HPO4·7H2O, pH=4.5). To the cell pellets left in the remaining assay buffer, 150 μL 0.1% Triton-X-100 was then added to each well, resuspended by pipetting up and down, and 50 μL cell lysates transferred to a second 96-well flat bottom plate containing 100 μL substrate solution per well. Plates containing transferred supernatant and cell lysates were then incubated in a warm air oven for 90 minutes at 37° C. After incubation, 50 μL of 400 mM Glycine buffer (pH 10.7) was added into each well and the plate was read on a Molecular Devices SpectraMax iD5 plate reader (absorbance at 405 nm with reference filter at 620 nm). After background subtraction, the percentage degranulation (percent beta-hexosaminidase release) was calculated as 100×(supernatant values)/(supernatant+lysate values), followed by analysis using GraphPad Prism software to calculate an IC50 value for each compound.
The activity ranges are denoted as follows: “+++++” denotes antagonist activity <100 nM; “++++” denotes antagonist activity between 100 and 500 nM; “+++” denotes activity between 501 and 1000 nM; “++” denotes activity between 1001 and 2500 nM; and “+” denotes activity >2500 nM.

The target of data set [2] is T1, human MRGPRX2 (Homo sapiens, UniProt Q96LB1).
T1 construct: expressed in transfected cells
T1 sequence (Q96LB1 1-330): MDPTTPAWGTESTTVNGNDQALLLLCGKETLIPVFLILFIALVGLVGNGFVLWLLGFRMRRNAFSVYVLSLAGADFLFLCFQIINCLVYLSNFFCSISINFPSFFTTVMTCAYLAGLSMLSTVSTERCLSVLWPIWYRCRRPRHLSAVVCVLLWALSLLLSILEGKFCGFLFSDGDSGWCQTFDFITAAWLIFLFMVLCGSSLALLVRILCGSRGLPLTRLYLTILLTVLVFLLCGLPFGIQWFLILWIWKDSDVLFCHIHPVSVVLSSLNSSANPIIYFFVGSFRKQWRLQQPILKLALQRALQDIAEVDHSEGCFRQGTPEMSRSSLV
The data set can be described thus: MRGPRX2 activity: IP-One HTRF antagonist assay in CHO cells versus Cortistatin-14. In kind it is cell-based. To be noted: CHO cells stably expressing human MRGPRX2; versus 0.3 uM Cortistatin-14 agonist; IP-1 HTRF. In outline: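 CHO cells stably expressing human MRGPRX2 received compound as a 10-point curve (30 uM top, 1:3 dilutions) plus 0.3 μM Cortistatin-14 in LiCl buffer, pH 8. Incubation 1 h at 37 °C, then 1 h at room temperature. IP-1 accumulation read by HTRF; IC50 from ratio curves, reported as activity bins.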

A short description of data set [3]: Mouse Pharmacokinetics Studies (50 mg/kg oral gavage, plasma LC-MS/MS). In kind it is in vivo. To be noted: Male C57BL/6 mice, non-fasted; for AUC(0-t) / Cmax / Tmax: mouse; for Tmax: read-out: PK: Tmax. The method, then: Compounds were formulated in 5% DMSO, 5% Solutol, and 90% PBS without Ca and Mg (pH 7.4) at a concentration of 5 mg/mL. Male C57BL/6 mice (n=3/compound) were administered a 50 mg/kg dose of each compound by oral gavage under a non-fasted condition. Blood samples were collected via the saphenous vein onto K2-EDTA at 0.25, 0.5, 1, 2, 4, 8 and 24 hours after dosing, and plasma was prepared and stored at −80° C. until analysis. Plasma sample preparation for analysis was done by protein precipitation using acetonitrile (including Verapamil as an internal standard) followed by centrifugation. Compound concentrations were determined in extracted plasma using LC-MS/MS relative to a 12-point standard curve covering the 1 to 4000 nM range. Non-compartmental analysis using Phoenix WinNonlin was used to estimate pharmacokinetic parameters including area under the curve, clearance, and half-life. The administered dose was confirmed by analysis of residual dosing material by UPLC-UV relative to a single point calibration sample.

Take `Cn1cc(C(=O)N[C@@H]2CCC[C@H](Nc3cc(C(F)(F)F)nc4ccc(Cl)cc34)C2)cn1` [Example 4-400]: the IC50 in data set [1] was < 100 nM. Besides, the IC50 in data set [2] was < 100 nM. In data set [3], the “AUC 0-24” value was 640 µM·h; the AUC(0-t) – broadly, exposure summed from dosing to a finite time, without extrapolation to infinity – worked out at 640 µM·h; the Cmax (usually the highest concentration seen after dosing) worked out at 61 µM; the Tmax (usually the time from dosing to the highest level) is 1.3 h.
For the molecule `CC(C)(O)Cn1cc(C(=O)N[C@@H]2CCC[C@H](Nc3cc(C(F)(F)F)nc4ccc(Cl)cc34)C2)c(Cl)n1` [Example 31, 3-chloro-N-[(1R,3S)-3-[[6-chloro-2-(trifluoromethyl)-4-quinolyl]amino]cyclohexyl]-1-(2-hydroxy-2-methylpropyl)pyrazole-4-carboxamide], in data set [1], the IC50 was < 100 nM. Besides, the IC50 in data set [2] is < 100 nM. Moreover, in data set [3], the “AUC 0-24” value came out at 740 µM·h, the AUC(0-t) was 740 µM·h, the Cmax amounted to 74 µM and the time to peak (Tmax) was found to be 1.7 h.
Regarding `O=C(N[C@@H]1CCC[C@H](Nc2cc(C(F)(F)F)nc3ccc(Cl)cc23)C1)c1cn(CC(F)(F)F)nc1Cl` [Example 30, 3-chloro-N-((1R,3S)-3-((6-chloro-2-(trifluoromethyl)quinolin-4-yl)amino)cyclohexyl)-1-(2,2,2-trifluoroethyl)-1H-pyrazole-4-carboxamide], the IC50 in data set [1] is < 100 nM. Also, the IC50 in data set [2] is < 100 nM. In addition, in data set [3], the “AUC 0-24” value was found to be 150 µM·h, the area under the curve AUC(0-t) came out at 150 µM·h, the Cmax was determined as 13 µM and the Tmax was 0.5 h.
With `COc1ccc(C(=O)N[C@@H]2CCC[C@H](Nc3cc(C(F)(F)F)nc4ccc(Cl)cc34)C2)cn1` [Example 4-414], in data set [1], the IC50 is < 100 nM. Moreover, the IC50 in data set [2] is < 100 nM. Moreover, in data set [3], the “AUC 0-24” value came out at 140 µM·h, the area under the curve AUC(0-t) is 140 µM·h, the Cmax is 11 µM and the Tmax was 4 h.
Regarding `COc1ccc(C(=O)N[C@@H]2CCC[C@H](Nc3cc(C(F)(F)F)nc4ccc(C)cc34)C2)cc1` [Example 1-3], the IC50 in data set [1] lay within 100 to 500 nM. Further, the IC50 in data set [2] was < 100 nM. In data set [3], the “AUC 0-24” value stood at 83 µM·h, the AUC(0-t) was found to be 83 µM·h, the Cmax was 13 µM and the Tmax came out at 0.83 h.
